pEC50: −log10 of the molar value. ≈ marks a conversion by molar mass, not a printed value.
What was measured:
HBV [1] = experiment: Anti-HBV activity in vitro in HepG2.2.15 cells (extracellular HBV DNA by qPCR); format: cell-based, Hepatitis B virus; conditions: Hepatitis B virus; HepG2.2.15 cells; in-house data; read-out: EC50
Summary of the method: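 Supernatant HBV DNA was measured by qPCR after viral DNA extraction. Samples came from 5-day cultures of HepG2.2.15 cells, an HBV-genome-transfected HepG2 line, exposed to half-log compound dilutions in medium containing 0.5% DMSO.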

[2] = Cytotoxicity (CC50) in HepDE19 cells, CCK-8 cell viability; format: cell-based; conditions: human, HepDE19 cells; read-out: CC50
Description: HepG2.2.15 and HepDE19 are stably-transfected cell lines containing the HBV genome. Both cell lines are derived from the hepatoblastoma cell line Hep G2 (American Type Culture Collection, ATCC® HB-8065™) by the published procedures described in references: MA Selles et al. Proc. Natl. Acad. Sci. USA 1987, 84, 1005-1009 and H Guo et al. Journal of Virology 2007, 81, 12472-12484, respectively. Both cell lines were maintained in Dulbecco's modified Eagle's medium (DMEM)-F12 medium supplemented with 10% fetal bovine serum, 100 U/mL penicillin, 100 μg/mL streptomycin, and 0.5 mg/mL of G418.
Five days after treatment, cell viability was measured by addition of 20 μL of CCK-8 reagent. Two hours after incubation at 37° C., the absorbance at wavelengths of 450 nm and 630 nm (OD450 and OD630) was recorded by a plate reader.

HBV [3] = experiment: Selectivity index (CC50 value/EC50 value); format: cell-based, Hepatitis B virus
Description: Based on FDA guidance, in order to support clinical testing in humans, the assessment of acceptable risk-benefit has to be achieved by providing clear evidence of in vitro antiviral activity (EC50) and cytotoxicity (CC50). It is important to establish that an investigational product has antiviral activity at concentrations that can be achieved in vivo without inducing toxic effects to cells. Furthermore, in a cell culture model, apparent antiviral activity of an investigational product can be the result of host cell death after exposure to the product. The relative effectiveness of the compound in inhibiting viral replication compared to inducing cell death is defined as the selectivity index (CC50 value/EC50 value). It is desirable to have a high selectivity index giving maximum antiviral activity with minimal cell toxicity.
The relative effectiveness of the compound in inhibiting viral replication compared to inducing cell death is defined as the selectivity index (CC50 value/EC50 value). It is desirable to have a high selectivity index giving maximum antiviral activity with minimal cell toxicity.

[4] = Metabolic stability study in human microsome; format: in vitro ADME
Summary of the method: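 Depletion of 1 μM compound followed by LC-MS/MS over 0–30 min (0, 3, 6, 9, 15, 30 min) after methanol quench. Incubations at 37 °C, pH 7.4 phosphate buffer, 0.5 mg/mL microsomal protein, with NADPH (1 mM) or a regenerating system as cofactor; controls lacked cofactor.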

[5] = Lyophilisation solubility assay (Lysa); format: physicochemical; conditions: phosphate buffer, pH 6.5, aqueous buffer, thermodynamic from solid
Summary of the method: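 Solubility in μg/mL is read by UV or HPLC-UV on filtrate, neat and diluted 1/10. Before filtration, the residue from evaporated 10 mM DMSO stock was taken up in pH 6.5 0.05 M phosphate buffer, then stirred 1 h, shaken 2 h and stood overnight, in duplicate.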

## COC(=O)C1=C(CN2CC(F)(F)C[C@H]2C(=O)O)NC(c2nc(C(F)(F)F)cs2)=N[C@H]1c1ccc(F)cc1Cl [Example 25, (R)-6-((S)-2-Carboxy-4,4-difluoro-pyrrolidin-1-ylmethyl)-4-(2-chloro-4-fluoro-phenyl)-2-(4-trifluoromethyl-thiazol-2-yl)-1,4-dihydro-pyrimidine-5-carboxylic acid methyl ester]
HBV [1]
  pEC50: 8.30
[2]
  CC50 at 5 days: > 100 µM
HBV [3]
  Selectivity index (CC50/EC50): >20000
[4]
  Human Hepatic Clearance: 9.34 mL/min/kg
[5]
  solubility thermodynamic: 546 µg/mL (≈ 937 µM)

## COC(=O)C1=C(CN2CC(F)(F)C[C@H]2C(=O)O)NC(c2nccn2C)=N[C@H]1c1ccc(F)cc1Cl [Example 32, (R)-6-((S)-2-Carboxy-4,4-difluoro-pyrrolidin-1-ylmethyl)-4-(2-chloro-4-fluoro-phenyl)-2-(1-methyl-1H-imidazol-2-yl)-1,4-dihydro-pyrimidine-5-carboxylic acid methyl ester]
HBV [1]
  pEC50: 7.89
[2]
  CC50 at 5 days: 40 µM
HBV [3]
  Selectivity index (CC50/EC50): 3125
[4]
  Human Hepatic Clearance: 5.04 mL/min/kg
[5]
  solubility thermodynamic: 632 µg/mL (≈ 1230 µM)

## CCOC(=O)C1=C(CN2CC(F)(F)C[C@H]2C(=O)O)NC(c2nccs2)=N[C@H]1c1ccc(F)cc1Cl [Example 34, (R)-6-((S)-2-Carboxy-4,4-difluoro-pyrrolidin-1-ylmethyl)-4-(2-chloro-4-fluoro-phenyl)-2-thiazol-2-yl-1,4-dihydro-pyrimidine-5-carboxylic acid ethyl ester]
HBV [1]
  pEC50: 8.00
[2]
  CC50 at 5 days: > 100 µM
HBV [3]
  Selectivity index (CC50/EC50): >10000
[4]
  Human Hepatic Clearance: 7.46 mL/min/kg
[5]
  solubility thermodynamic: 531 µg/mL (≈ 1000 µM)

## CCOC(=O)C1=C(CN2CCOC[C@H]2C(=O)O)NC(c2nccn2C)=N[C@H]1c1ccc(F)cc1Cl [Example 35, (S)-4-[(R)-6-(2-Chloro-4-fluoro-phenyl)-5-ethoxycarbonyl-2-(1-methyl-1H-imidazol-2-yl)-3,6-dihydro-pyrimidin-4-ylmethyl]-morpholine-3-carboxylic acid]
HBV [1]
  pEC50: 8.11
[2]
  CC50 at 5 days: > 100 µM
HBV [3]
  Selectivity index (CC50/EC50): 12987
[4]
  Human Hepatic Clearance: 8.86 mL/min/kg
[5]
  solubility thermodynamic: > 599 µg/mL

## CCOC(=O)C1=C(CN2CC(F)(F)C[C@H]2C(=O)O)NC(c2nccn2C)=N[C@H]1c1ccc(F)cc1Cl [Example 36, (R)-6-((S)-2-Carboxy-4,4-difluoro-pyrrolidin-1-ylmethyl)-4-(2-chloro-4-fluoro-phenyl)-2-(1-methyl-1H-imidazol-2-yl)-1,4-dihydro-pyrimidine-5-carboxylic acid ethyl ester]
HBV [1]
  pEC50: 7.74
[2]
  CC50 at 5 days: 23 µM
HBV [3]
  Selectivity index (CC50/EC50): 1251
[4]
  Human Hepatic Clearance: 6.22 mL/min/kg
[5]
  solubility thermodynamic: > 637 µg/mL

## CCOC(=O)C1=C(CN2CC(F)(F)C[C@H]2C(=O)O)NC(c2nccs2)=N[C@H]1c1ccc(Cl)cc1Cl [Example 38, (R)-6-((S)-2-Carboxy-4,4-difluoro-pyrrolidin-1-ylmethyl)-4-(2,4-dichloro-phenyl)-2-thiazol-2-yl-1,4-dihydro-pyrimidine-5-carboxylic acid ethyl ester]
HBV [1]
  pEC50: 8.48
[2]
  CC50 at 5 days: 21 µM
HBV [3]
  Selectivity index (CC50/EC50): 6315
[4]
  Human Hepatic Clearance: 9.3 mL/min/kg
[5]
  solubility thermodynamic: 291 µg/mL (≈ 534 µM)

## CCOC(=O)C1=C(CN2CC(F)(F)C[C@H]2C(=O)O)NC(c2nccs2)=N[C@H]1c1ccc(F)c(F)c1 [Example 41, (S)-6-((S)-2-Carboxy-4,4-difluoro-pyrrolidin-1-ylmethyl)-4-(3,4-difluoro-phenyl)-2-thiazol-2-yl-1,4-dihydro-pyrimidine-5-carboxylic acid ethyl ester]
HBV [1]
  pEC50: 7.77
[2]
  CC50 at 5 days: 40 µM
HBV [3]
  Selectivity index (CC50/EC50): 2372
[4]
  Human Hepatic Clearance: 6.83 mL/min/kg
[5]
  solubility thermodynamic: > 630 µg/mL
